In patent publication US20160030409A1, “METHOD FOR RELIEVING CHRONIC PAIN” (priority 2014, published 2016):

Tested on: chronic non-malignant pain due to fibromyalgia and osteoarthritis
Assay: Trial experiment: Naropin injected into tender points of a patient with chronic non-malignant pain
Type: in vivo
Experimental: The patient was treated with the anesthetic Naropin® (generically known as ropivacaine), by injecting 0.5 cc of the anesthetic, by needle, into most tender points above and below the knees. Naropin was administered at a concentration of 5 mg/ml.
Subsequently, after sufficient time had elapsed for the previously injected Naropin to leave the patient's body, 0.5 cc of Naropin was once again administered, at a concentration of 5 mg/ml, using the Medical International Technology, Inc. (MIT) Med-Jet® H™ needleless, pressure-based injector. The injector was set at a pressure of 150 psig. For knee pain, most tender points, approximately five to eight, above and below the knees were injected. For hip pain, most tender points, approximately five, above the trochanteric bursa were injected. For back pain, most tender points, approximately ten on each side of the back, around the sacroiliac joints were injected. A single injection was administered for each tender point selected for injection. The administration of the local anesthetic by needleless injection left painful welts at each injection site, which took approximately two to three weeks to disappear.

time for welts to disappear (needleless injection, 150 psig): two to three
injection site reaction (needleless injection, 150 psig, each injection site): painful welts
Structure (SMILES): CCCN1CCCC[C@H]1C(=O)Nc1c(C)cccc1C [Naropin, ropivacaine]
tenderness of tender points after the welts had disappeared (0.5 cc at 5 mg/ml by Med-Jet H needleless pressure-based injector at 150 psig): no longer tender
pain after the welts had disappeared (0.5 cc at 5 mg/ml by Med-Jet H needleless pressure-based injector at 150 psig, tender points of knees, hip, back): pain was diminished
pain relief (0.5 cc at 5 mg/ml injected by needle into most tender points above and below the knees, middle-aged patient): No pain relief
